{"source": "patent US20260115170A1", "about": "“Method of Ameliorating a Symptom or a Disease in a Human Caused by Fungus” (ISHIHARA SANGYO KAISHA, LTD., priority 2020, published 2026)", "assay_type_in_all_cases": "cell-based", "key": {"[1]": {"system": "Candida albicans (NBRC1594 Strain)", "experiment": "Test Example 2 minimum inhibitory concentration", "conditions": "Sabouraud medium, 30° C. for 72 hours", "procedure": "(§1) Test Microbial Strains: Candida albicans (NBRC1594 Strain), Candida glabrata (JCM3761 Strain), Cryptococcus neoformans (JCM3685 Strain), Aspergillus fumigatus (JCM10253), Aspergillus niger (ATCC6725), Trichophyton rubrum (ATCCMYA4607), Trichophyton interdegitale (ATCC9533), Microsporum canis (NBRC7863), and Arthroderma vanbreuseghemii (JCM1891)\n(§2) The Candida microbes and the Cryptococcus microbe were cultured at 30° C. for 72 hours and the other microbes were cultured at 25° C. for 120 hours in Sabouraud media, and then suspended in 5 mL of PBS (containing 8 g of sodium chloride, 2.9 g of disodium hydrogen phosphate, 0.2 g of potassium chloride, and 0.2 g of potassium dihydrogen phosphate in 1000 mL) containing Tween80 (polyoxyethylene sorbitan monooleate: Kanto Chemical Co., Inc.) (1% (V/V))), and the resulting suspension was filtered through a cell strainer (φ40 μm). Spores were recovered from the filtrate by centrifugation (3500 rpm, 5 minutes) and washed twice with physiological saline, and then a spore suspension was prepared (1×10^6 spores/mL). 50 μL of the spore suspension was inoculated into a Sabouraud medium to which compound No. 6 dissolved in DMSO was added to have a predetermined concentration. The Candida microbes and the Cryptococcus microbe were cultured at 30° C. for 72 hours and the other microbes were cultured at 25° C. for 120 hours, then the presence or absence of colony growth was investigated, and the minimum inhibitory concentration was determined."}, "[2]": {"system": "Arthroderma vanbreuseghemii (JCM1891)", "experiment": "Test Example 2 minimum inhibitory concentration", "conditions": "Trichophyton mentagrophytes, Sabouraud medium, 25° C. for 120 hours", "procedure": "as §1, §2"}, "[3]": {"system": "Trichophyton rubrum (ATCCMYA4607)", "experiment": "Test Example 2 minimum inhibitory concentration", "conditions": "Sabouraud medium, 25° C. for 120 hours", "procedure": "as §1, §2"}, "[4]": {"system": "Candida glabrata (JCM3761 Strain)", "experiment": "Test Example 2 minimum inhibitory concentration", "conditions": "Nakaseomyces glabratus, Sabouraud medium, 30° C. for 72 hours", "procedure": "as §1, §2"}, "[5]": {"system": "Malassezia sympodialis (IFM 48588)", "experiment": "Test Example 3-1 antifungal activity test, minimum fungicidal concentration after 1 minute", "conditions": "1 minute contact, CHROMagar medium, 32° C. for 72 hours, read-out: Minimum fungicidal concentration (MFC100)", "procedure": "(§3) Test Microbial Strains: Malassezia furfur (IFM 55951), Malassezia sympodialis (IFM 48588), and Malassezia globosa (IFM 51946) The Malassezia microbe (Malassezia furfur, Malassezia sympodialis, or Malassezia globosa) cultured in a CHROMagar™ Malassezia/Candida Prepared medium (peptone, special enzyme substrate mixture, chloramphenicol, olive oil, agar, manufactured by Kanto Chemical Co., Inc.) for 5 to 7 days was suspended in physiological saline, and a suspension thereof was prepared in such a way as to have an absorbance of 0.025 at 600 nm. Thereto, the test compound dissolved in DMSO was added in such a way as to provide a final concentration of 200, 100, 50, or 25 ppm, and after 1 minute, 10 μL of the suspension and 10 mL of physiological saline were placed in a syringe and stirred, and the syringe was connected to a 37 mm Quality Monitor (manufactured by Pall Corporation) followed by filtration and washing twice with 10 mL of physiological saline. The membrane filter was removed from the Quality Monitor, placed on a CHROMagar™ Malassezial Candida Prepared medium, and was subjected to culturing at 32° C. for 72 hours, the presence or absence of colony growth was investigated, and the minimum fungicidal concentration (MFC100) was determined."}, "[6]": {"system": "Malassezia globosa (IFM 51946)", "experiment": "Test Example 3-1 antifungal activity test, minimum fungicidal concentration after 1 minute", "conditions": "1 minute contact, CHROMagar medium, 32° C. for 72 hours, read-out: Minimum fungicidal concentration (MFC100)", "procedure": "as §3"}, "[7]": {"system": "Malassezia furfur (IFM 55951)", "experiment": "Test Example 3-1 antifungal activity test, minimum fungicidal concentration after 1 minute", "conditions": "1 minute contact, CHROMagar medium, 32° C. for 72 hours, read-out: Minimum fungicidal concentration (MFC100)", "procedure": "as §3"}}}
{"molecule": "Cc1ccc(-c2nc(C#N)[nH]c2Cl)cc1Cl", "note": "[Compound No. 6, 5-Chloro-4-(3-chloro-4-methylphenyl)-1H-imidazole-2-carbonitrile]", "values": [{"measurement": "MIC", "setting": "[1]", "result": 250, "unit": "µg/mL"}, {"measurement": "MIC", "setting": "[2]", "result": 7.8, "unit": "µg/mL"}, {"measurement": "MIC", "setting": "[3]", "result": 31.3, "unit": "µg/mL"}, {"measurement": "MIC", "setting": "[4]", "result": 250, "unit": "µg/mL"}, {"measurement": "MFC", "setting": "[5]", "result": 50, "unit": "µg/mL"}, {"measurement": "MFC", "setting": "[6]", "result": 50, "unit": "µg/mL"}, {"measurement": "MFC", "setting": "[7]", "result": 50, "unit": "µg/mL"}]}
